Measurements as given in US11420958B2, “Aryl and heteroaryl substituted indole compounds” (BRISTOL-MYERS SQUIBB COMPANY, priority 2017, dated 2022).
pIC50: −log10 of the molar value.

Experiments:
Assay type in all cases: cell-based
human TLR9 = human TLR9 (Homo sapiens (Human), UniProt Q9NR96); assay: TLR9 inhibition reporter assay (HEK-Blue, SEAP); settings: HEK-Blue cells overexpressing human TLR9, ODN2006 5 nM stimulation
Outline: (§1)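 Percent inhibition of agonist-induced SEAP secretion was scored against DMSO-only and reference-inhibitor controls. Stimulation lasted 22 h at 37 °C following 30 min compound pre-exposure (0.05 nM–50 μM); ligands were gardiquimod 7.5 μM, R848 15.9 μM and ODN2006 5 nM for TLR7, 8 and 9.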

human TLR8 = human TLR8 (Homo sapiens (Human), UniProt Q9NR97); assay: TLR8 inhibition reporter assay (HEK-Blue, SEAP); settings: HEK-Blue cells overexpressing human TLR8, R848 15.9 μM stimulation
Sequence of human TLR8 (Q9NR97 27-1041): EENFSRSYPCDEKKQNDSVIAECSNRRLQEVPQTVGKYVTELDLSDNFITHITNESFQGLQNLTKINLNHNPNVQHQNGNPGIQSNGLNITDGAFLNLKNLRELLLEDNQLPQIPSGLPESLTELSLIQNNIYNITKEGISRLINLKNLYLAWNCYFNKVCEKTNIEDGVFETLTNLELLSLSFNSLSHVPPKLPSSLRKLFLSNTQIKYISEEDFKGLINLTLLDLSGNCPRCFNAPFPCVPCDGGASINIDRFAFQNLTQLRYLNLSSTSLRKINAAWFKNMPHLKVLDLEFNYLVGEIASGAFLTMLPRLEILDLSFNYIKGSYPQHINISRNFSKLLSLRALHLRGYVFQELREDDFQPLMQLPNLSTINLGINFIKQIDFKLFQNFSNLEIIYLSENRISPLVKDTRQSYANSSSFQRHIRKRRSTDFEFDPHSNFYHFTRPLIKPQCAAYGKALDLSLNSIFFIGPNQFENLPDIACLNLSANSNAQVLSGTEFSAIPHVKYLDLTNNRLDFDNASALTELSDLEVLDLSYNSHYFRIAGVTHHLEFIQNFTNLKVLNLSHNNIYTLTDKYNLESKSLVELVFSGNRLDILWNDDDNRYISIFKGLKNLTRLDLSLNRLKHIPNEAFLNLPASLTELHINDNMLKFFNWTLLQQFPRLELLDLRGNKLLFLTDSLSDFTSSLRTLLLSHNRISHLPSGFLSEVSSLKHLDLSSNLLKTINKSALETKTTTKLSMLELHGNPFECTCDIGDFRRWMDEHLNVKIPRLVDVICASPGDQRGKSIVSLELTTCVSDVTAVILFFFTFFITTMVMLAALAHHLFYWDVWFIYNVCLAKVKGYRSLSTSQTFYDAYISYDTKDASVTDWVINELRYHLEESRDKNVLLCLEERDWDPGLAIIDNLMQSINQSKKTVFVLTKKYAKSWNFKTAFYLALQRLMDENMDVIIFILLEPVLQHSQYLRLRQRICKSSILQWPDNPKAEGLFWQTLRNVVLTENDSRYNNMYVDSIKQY
Outline: as §1

human TLR7 = human TLR7 (Homo sapiens (Human), UniProt Q9NYK1); assay: TLR7 inhibition reporter assay (HEK-Blue, SEAP); settings: HEK-Blue cells overexpressing human TLR7, gardiquimod 7.5 μM stimulation
Sequence of human TLR7 (Q9NYK1 27-1049): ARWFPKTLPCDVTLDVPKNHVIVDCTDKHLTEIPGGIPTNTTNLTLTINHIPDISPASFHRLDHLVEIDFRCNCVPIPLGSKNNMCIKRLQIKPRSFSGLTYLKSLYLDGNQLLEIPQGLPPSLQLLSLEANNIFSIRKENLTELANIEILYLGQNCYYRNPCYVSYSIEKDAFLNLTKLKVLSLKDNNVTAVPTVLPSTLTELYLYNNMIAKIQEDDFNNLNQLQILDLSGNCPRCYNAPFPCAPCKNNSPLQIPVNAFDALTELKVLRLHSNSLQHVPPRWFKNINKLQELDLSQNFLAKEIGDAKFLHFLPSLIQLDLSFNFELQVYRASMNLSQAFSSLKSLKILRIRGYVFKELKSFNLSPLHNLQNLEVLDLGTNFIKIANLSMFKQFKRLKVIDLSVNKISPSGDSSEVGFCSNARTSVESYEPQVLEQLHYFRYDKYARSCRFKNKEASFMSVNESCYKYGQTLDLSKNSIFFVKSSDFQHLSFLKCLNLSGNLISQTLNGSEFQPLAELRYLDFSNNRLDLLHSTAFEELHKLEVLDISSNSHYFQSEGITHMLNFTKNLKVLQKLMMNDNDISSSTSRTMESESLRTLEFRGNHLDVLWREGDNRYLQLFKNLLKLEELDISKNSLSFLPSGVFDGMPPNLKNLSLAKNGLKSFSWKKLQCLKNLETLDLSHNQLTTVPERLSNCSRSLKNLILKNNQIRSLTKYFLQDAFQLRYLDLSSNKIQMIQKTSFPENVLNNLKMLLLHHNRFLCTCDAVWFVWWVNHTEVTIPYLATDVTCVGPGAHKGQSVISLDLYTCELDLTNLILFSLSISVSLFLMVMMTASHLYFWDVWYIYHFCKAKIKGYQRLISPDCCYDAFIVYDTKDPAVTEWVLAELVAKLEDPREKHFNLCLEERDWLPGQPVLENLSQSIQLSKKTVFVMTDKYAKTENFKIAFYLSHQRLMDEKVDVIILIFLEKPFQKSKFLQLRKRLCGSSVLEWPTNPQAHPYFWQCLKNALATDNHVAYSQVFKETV
Outline: as §1

Sequence of human TLR9 (Q9NR96 26-1032): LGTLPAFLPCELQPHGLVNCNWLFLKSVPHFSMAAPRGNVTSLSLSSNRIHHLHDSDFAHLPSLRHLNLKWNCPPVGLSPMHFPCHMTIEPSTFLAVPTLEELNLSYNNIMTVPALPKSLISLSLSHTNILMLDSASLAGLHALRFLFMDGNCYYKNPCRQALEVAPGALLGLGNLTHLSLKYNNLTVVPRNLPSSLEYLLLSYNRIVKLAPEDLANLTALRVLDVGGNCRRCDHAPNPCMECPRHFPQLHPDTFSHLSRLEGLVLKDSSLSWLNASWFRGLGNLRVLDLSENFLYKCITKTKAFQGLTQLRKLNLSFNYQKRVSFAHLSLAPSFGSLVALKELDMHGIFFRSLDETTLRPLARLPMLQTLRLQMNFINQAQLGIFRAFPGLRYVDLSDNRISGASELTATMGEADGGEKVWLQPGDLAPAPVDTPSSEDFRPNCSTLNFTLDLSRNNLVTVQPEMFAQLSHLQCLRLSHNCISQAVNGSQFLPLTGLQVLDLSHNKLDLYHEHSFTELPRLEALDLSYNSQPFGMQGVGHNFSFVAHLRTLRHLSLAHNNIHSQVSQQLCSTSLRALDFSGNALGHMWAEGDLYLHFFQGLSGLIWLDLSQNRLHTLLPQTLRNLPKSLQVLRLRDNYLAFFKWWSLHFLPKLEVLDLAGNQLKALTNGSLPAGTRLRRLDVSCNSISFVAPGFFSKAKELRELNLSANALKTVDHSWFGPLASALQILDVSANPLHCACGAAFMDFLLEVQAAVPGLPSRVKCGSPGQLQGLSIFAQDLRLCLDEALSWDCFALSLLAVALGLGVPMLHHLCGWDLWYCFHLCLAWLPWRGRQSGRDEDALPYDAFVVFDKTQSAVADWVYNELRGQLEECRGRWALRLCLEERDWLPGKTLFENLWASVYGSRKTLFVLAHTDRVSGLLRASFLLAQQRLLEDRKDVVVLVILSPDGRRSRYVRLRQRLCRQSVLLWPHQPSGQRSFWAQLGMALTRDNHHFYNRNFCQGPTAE

| Compound | pIC50 (human TLR9) | pIC50 (human TLR8) | pIC50 (human TLR7) |
| --- | --- | --- | --- |
| CCc1c(-c2ccc(OC)c(OC)c2)[nH]c2ccc(-c3noc([C@@H](N)CCCCN)n3)cc12 [Example 464, (S)-1-(3-(2-(3,4-dimethoxyphenyl)-3-ethyl-1H-indol-5-yl)-1,2,4-oxadiazol-5-yl)pentane-1,5-diamine] | 5.56 | 6.74 | 5.78 |
| COc1ccc(-c2[nH]c3ccc(-c4cc[nH]c4)cc3c2C(C)C)cc1OC [Example 465, 2-(3,4-dimethoxyphenyl)-3-isopropyl-5-(1H-pyrrol-3-yl)-1H-indole] | 4.48 | 7.09 | 6.52 |
| CCc1c(-c2ccc(OC)c(OC)c2)[nH]c2ccc(-c3cccnc3)cc12 [Example 466, 2-(3,4-dimethoxyphenyl)-3-ethyl-5-(pyridin-3-yl)-1H-indole] | < 4.30 | 6.43 | 5.41 |
| CC(C)c1c(-c2ccnc3[nH]ncc23)[nH]c2ccc(-c3cccnc3)cc12 [Example 467, 4-(3-isopropyl-5-(pyridin-3-yl)-1H-indol-2-yl)-1H-pyrazolo[3,4-b]pyridine] | 4.62 | 7.74 | 6.68 |
| CC(C)c1c(-c2ccnc3[nH]ncc23)[nH]c2ccc(-c3ccc4nccnc4c3)cc12 [Example 468, 6-(3-isopropyl-2-(1H-pyrazolo[3,4-b]pyridin-4-yl)-1H-indol-5-yl)quinoxaline] | 4.32 | 7.46 | 6.35 |
| CC(C)c1c(-c2ccnc3[nH]ncc23)[nH]c2ccc(-c3ccc4ncccc4c3)cc12 [Example 469, 6-(3-isopropyl-2-(1H-pyrazolo[3,4-b]pyridin-4-yl)-1H-indol-5-yl)quinoline] | < 4.30 | 6.89 | 6.22 |
| CC(C)c1c(-c2ccnc3[nH]ncc23)[nH]c2ccc(-c3cccc4cnccc34)cc12 [Example 470, 5-(3-isopropyl-2-(1H-pyrazolo[3,4-b]pyridin-4-yl)-1H-indol-5-yl)isoquinoline] | < 4.30 | 7.25 | 5.59 |
| CCc1c(-c2ccc(OC)c(OC)c2)[nH]c2ccc(-c3ccncc3)cc12 [Example 471, 2-(3,4-dimethoxyphenyl)-3-ethyl-5-(pyridin-4-yl)-1H-indole] | 4.37 | 6.62 | 5.66 |
| COc1ccc(-c2[nH]c3ccc(-c4nnc([C@H]5CCCNC5)o4)cc3c2CC(F)(F)F)cc1OC [compound 57] | 5.83 | 8.00 | 7.51 |
